Laboratory results published in publication PMC10461100, “Transcuticular calcium imaging as a tool for the functional study of insect odorant receptors” (Frontiers in Molecular Neuroscience, 2023).

Experiments:
SlitOR29 = system: T1, SlitOR29; test: transcuticular calcium imaging (GCaMP6s), dose-response; design: species or system Spodoptera littoralis; settings: volatile stimulus; dose loaded on filter paper (in mineral oil), not a concentration; in vivo fly antenna; 1 s puff
T1 construct: full-length UAS transgene in Drosophila melanogaster ab3A basiconic neurons in place of DmelOR22a/b; endogenous Drosophila Orco; GCaMP6s reporter co-expressed; with Odorant receptor coreceptor (endogenous, Drosophila melanogaster)

SlitOR6 = target: T2, SlitOR6 (Spodoptera littoralis, UniProt I6LJY9); test: transcuticular calcium imaging (GCaMP6m), dose-response; settings: volatile stimulus; dose loaded on filter paper (in hexane), not a concentration; in vivo fly antenna; 1 s puff
T2 construct: gene OR6; full-length UAS transgene in Drosophila melanogaster at1 trichoid neurons in place of DmelOR67d; endogenous Drosophila Orco; GCaMP6m reporter co-expressed; with Odorant receptor coreceptor (endogenous, Drosophila melanogaster)
T2 sequence (I6LJY9 1-432): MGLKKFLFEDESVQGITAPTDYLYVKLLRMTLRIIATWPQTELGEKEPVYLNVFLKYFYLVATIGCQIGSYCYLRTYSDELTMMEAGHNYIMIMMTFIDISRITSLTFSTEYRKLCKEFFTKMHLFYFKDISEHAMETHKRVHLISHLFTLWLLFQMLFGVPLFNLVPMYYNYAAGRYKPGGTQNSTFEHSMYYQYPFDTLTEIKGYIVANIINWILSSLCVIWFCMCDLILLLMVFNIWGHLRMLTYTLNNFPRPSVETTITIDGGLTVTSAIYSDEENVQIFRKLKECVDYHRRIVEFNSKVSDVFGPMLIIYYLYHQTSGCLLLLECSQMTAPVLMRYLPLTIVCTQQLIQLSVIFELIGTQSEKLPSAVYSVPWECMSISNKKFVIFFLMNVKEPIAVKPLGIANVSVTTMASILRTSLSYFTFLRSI
T2 sequence (Q9VNB5 1-486 partner): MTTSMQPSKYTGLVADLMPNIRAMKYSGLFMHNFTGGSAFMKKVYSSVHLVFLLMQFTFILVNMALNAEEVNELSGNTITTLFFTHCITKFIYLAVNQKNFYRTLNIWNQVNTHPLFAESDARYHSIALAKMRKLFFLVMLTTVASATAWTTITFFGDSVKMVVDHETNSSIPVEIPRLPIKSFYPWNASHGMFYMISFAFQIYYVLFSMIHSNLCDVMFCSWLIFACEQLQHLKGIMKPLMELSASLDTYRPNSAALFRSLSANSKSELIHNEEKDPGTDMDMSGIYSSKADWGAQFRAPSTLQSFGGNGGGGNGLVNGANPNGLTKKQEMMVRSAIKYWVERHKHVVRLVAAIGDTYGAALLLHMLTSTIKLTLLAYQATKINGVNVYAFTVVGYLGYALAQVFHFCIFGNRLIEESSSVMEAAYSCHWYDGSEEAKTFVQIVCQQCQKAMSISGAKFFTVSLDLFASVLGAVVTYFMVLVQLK

CC/C=C\CCOC(C)=O [(Z)-3-hexenyl acetate]
EC50 (SlitOR29): 11.52 ± 0.70 µg

C/C=C/C/C=C\CCCCCCCCOC(C)=O [(Z,E)-9,12-tetradecadienyl acetate]
EC50 (SlitOR6): 0.96 ± 0.14 µg

C=C/C(C)=C/CC=C(C)C [(E)-ocimene]
EC50 (SlitOR29): 1.27 ± 0.37 µg
